The NIST ThermoML archive (doi:10.1016/j.tca.2012.01.013)

Key:
[1] = refractive index (Na D-line) (dimensionless); xn = mol fraction of the nth substance listed; settings: 101 kPa, Liquid, Standard Abbe refractometry
[2] = xn = mol fraction of the nth substance listed; settings: 101 kPa, Liquid, Vibrating tube method

COC(=O)CCCCC(=O)OC [dimethyl 1,6-hexanedioate] + CCC(C)O
Settings	mass density, [2] [kg/m3]	refractive index, [1]
288.15 K, x1 = 0.1	851.006	1.40371
288.15 K, x1 = 0.2001	886.929	1.40787
288.15 K, x1 = 0.3	918.373	1.41161
288.15 K, x1 = 0.4	946.216	1.41507
288.15 K, x1 = 0.5003	971.377	1.41815
288.15 K, x1 = 0.6	994.171	1.42105
288.15 K, x1 = 0.6999	1014.77	1.42368
288.15 K, x1 = 0.8005	1033.71	1.42612
288.15 K, x1 = 0.8999	1050.86	1.42837
288.15 K, x1 = 1	1066.79	1.4305
293.15 K, x1 = 0.1	846.719	1.40153
293.15 K, x1 = 0.2001	882.468	1.4057
293.15 K, x1 = 0.3	913.786	1.40945
293.15 K, x1 = 0.4	941.538	1.4129
293.15 K, x1 = 0.5003	966.636	1.41602
293.15 K, x1 = 0.6	989.387	1.41891
293.15 K, x1 = 0.6999	1009.96	1.42156
293.15 K, x1 = 0.8005	1028.88	1.42403
293.15 K, x1 = 0.8999	1046.01	1.42628
293.15 K, x1 = 1	1061.93	1.42842
298.15 K, x1 = 0.1	842.377	1.39933
298.15 K, x1 = 0.2001	877.96	1.40348
298.15 K, x1 = 0.3	909.164	1.40724
298.15 K, x1 = 0.4	936.838	1.41071
298.15 K, x1 = 0.5003	961.876	1.41385
298.15 K, x1 = 0.6	984.59	1.41676
298.15 K, x1 = 0.6999	1005.13	1.41943
298.15 K, x1 = 0.8005	1024.03	1.42191
298.15 K, x1 = 0.8999	1041.15	1.4242
298.15 K, x1 = 1	1057.06	1.42636
303.15 K, x1 = 0.1	837.975	1.39709
303.15 K, x1 = 0.2001	873.411	1.40124
303.15 K, x1 = 0.3	904.511	1.405
303.15 K, x1 = 0.4	932.113	1.40851
303.15 K, x1 = 0.5003	957.1	1.41165
303.15 K, x1 = 0.6	979.781	1.4146
303.15 K, x1 = 0.6999	1000.3	1.4173
303.15 K, x1 = 0.8005	1019.19	1.41981
303.15 K, x1 = 0.8999	1036.29	1.42211
303.15 K, x1 = 1	1052.18	1.42429
308.15 K, x1 = 0.1	833.506	1.39479
308.15 K, x1 = 0.2001	868.81	1.39899
308.15 K, x1 = 0.3	899.82	1.40278
308.15 K, x1 = 0.4	927.355	1.4063
308.15 K, x1 = 0.5003	952.301	1.40948
308.15 K, x1 = 0.6	974.955	1.41244
308.15 K, x1 = 0.6999	995.457	1.41515
308.15 K, x1 = 0.8005	1014.33	1.4177
308.15 K, x1 = 0.8999	1031.43	1.42004
308.15 K, x1 = 1	1047.31	1.42222
313.15 K, x1 = 0.1	828.965	1.39245
313.15 K, x1 = 0.2001	864.16	1.39669
313.15 K, x1 = 0.3	895.087	1.40049
313.15 K, x1 = 0.4	922.569	1.40404
313.15 K, x1 = 0.5003	947.474	1.40726
313.15 K, x1 = 0.6	970.109	1.41026
313.15 K, x1 = 0.6999	990.598	1.41301
313.15 K, x1 = 0.8005	1009.47	1.41557
313.15 K, x1 = 0.8999	1026.55	1.41795
313.15 K, x1 = 1	1042.43	1.42017
318.15 K, x1 = 0.1	824.35	1.39013
318.15 K, x1 = 0.2001	859.451	1.39438
318.15 K, x1 = 0.3	890.312	1.39825
318.15 K, x1 = 0.4	917.75	1.4018
318.15 K, x1 = 0.5003	942.626	1.40503
318.15 K, x1 = 0.6	965.245	1.40808
318.15 K, x1 = 0.6999	985.726	1.41088
318.15 K, x1 = 0.8005	1004.59	1.41348
318.15 K, x1 = 0.8999	1021.67	1.41588
318.15 K, x1 = 1	1037.54	1.41819
323.15 K, x1 = 0.1	819.659	1.38776
323.15 K, x1 = 0.2001	854.686	1.39207
323.15 K, x1 = 0.3	885.493	1.39597
323.15 K, x1 = 0.4	912.894	1.39955
323.15 K, x1 = 0.5003	937.752	1.40283
323.15 K, x1 = 0.6	960.363	1.40592
323.15 K, x1 = 0.6999	980.838	1.40875
323.15 K, x1 = 0.8005	999.701	1.41138
323.15 K, x1 = 0.8999	1016.78	1.41382
323.15 K, x1 = 1	1032.64	1.41614

COC(=O)CCCCC(=O)OC [dimethyl 1,6-hexanedioate] + CCCCO
Settings	mass density, [2] [kg/m3]	refractive index, [1]
288.15 K, x1 = 0.0999	854.546	1.40584
288.15 K, x1 = 0.2004	890.617	1.40986
288.15 K, x1 = 0.2999	921.957	1.41343
288.15 K, x1 = 0.4003	949.859	1.41668
288.15 K, x1 = 0.4999	974.548	1.41965
288.15 K, x1 = 0.6007	996.907	1.42221
288.15 K, x1 = 0.6996	1016.65	1.42454
288.15 K, x1 = 0.7994	1034.84	1.4267
288.15 K, x1 = 0.8991	1051.42	1.42867
288.15 K, x1 = 1	1066.79	1.4305
293.15 K, x1 = 0.0999	850.5	1.40378
293.15 K, x1 = 0.2004	886.373	1.40776
293.15 K, x1 = 0.2999	917.562	1.41135
293.15 K, x1 = 0.4003	945.34	1.41458
293.15 K, x1 = 0.4999	969.9	1.41754
293.15 K, x1 = 0.6007	992.211	1.4201
293.15 K, x1 = 0.6996	1011.89	1.42243
293.15 K, x1 = 0.7994	1030.03	1.4246
293.15 K, x1 = 0.8991	1046.58	1.42658
293.15 K, x1 = 1	1061.93	1.42842
298.15 K, x1 = 0.0999	846.433	1.40169
298.15 K, x1 = 0.2004	882.112	1.40568
298.15 K, x1 = 0.2999	913.148	1.40925
298.15 K, x1 = 0.4003	940.805	1.41247
298.15 K, x1 = 0.4999	965.3	1.41541
298.15 K, x1 = 0.6007	987.507	1.418
298.15 K, x1 = 0.6996	1007.13	1.42033
298.15 K, x1 = 0.7994	1025.22	1.4225
298.15 K, x1 = 0.8991	1041.74	1.42451
298.15 K, x1 = 1	1057.06	1.42636
303.15 K, x1 = 0.0999	842.341	1.39959
303.15 K, x1 = 0.2004	877.825	1.40356
303.15 K, x1 = 0.2999	908.714	1.40713
303.15 K, x1 = 0.4003	936.253	1.41033
303.15 K, x1 = 0.4999	960.66	1.41329
303.15 K, x1 = 0.6007	982.791	1.41588
303.15 K, x1 = 0.6996	1002.36	1.41823
303.15 K, x1 = 0.7994	1020.41	1.42042
303.15 K, x1 = 0.8991	1036.89	1.42242
303.15 K, x1 = 1	1052.18	1.42429
308.15 K, x1 = 0.0999	838.219	1.39746
308.15 K, x1 = 0.2004	873.513	1.40144
308.15 K, x1 = 0.2999	904.259	1.40498
308.15 K, x1 = 0.4003	931.684	1.4082
308.15 K, x1 = 0.4999	955.998	1.41109
308.15 K, x1 = 0.6007	978.06	1.41376
308.15 K, x1 = 0.6996	997.573	1.41612
308.15 K, x1 = 0.7994	1015.59	1.41832
308.15 K, x1 = 0.8991	1032.04	1.42035
308.15 K, x1 = 1	1047.31	1.42222
313.15 K, x1 = 0.0999	834.066	1.39533
313.15 K, x1 = 0.2004	869.172	1.3993
313.15 K, x1 = 0.2999	899.775	1.40285
313.15 K, x1 = 0.4003	927.091	1.40603
313.15 K, x1 = 0.4999	951.32	1.40901
313.15 K, x1 = 0.6007	973.316	1.41163
313.15 K, x1 = 0.6996	992.781	1.41402
313.15 K, x1 = 0.7994	1010.76	1.41623
313.15 K, x1 = 0.8991	1027.18	1.41828
313.15 K, x1 = 1	1042.43	1.42017
318.15 K, x1 = 0.0999	829.874	1.39323
318.15 K, x1 = 0.2004	864.799	1.39716
318.15 K, x1 = 0.2999	895.264	1.40072
318.15 K, x1 = 0.4003	922.473	1.40393
318.15 K, x1 = 0.4999	946.622	1.40688
318.15 K, x1 = 0.6007	968.555	1.40952
318.15 K, x1 = 0.6996	987.974	1.4119
318.15 K, x1 = 0.7994	1005.91	1.41415
318.15 K, x1 = 0.8991	1022.31	1.41622
318.15 K, x1 = 1	1037.54	1.41819
323.15 K, x1 = 0.0999	825.64	1.39109
323.15 K, x1 = 0.2004	860.391	1.39505
323.15 K, x1 = 0.2999	890.725	1.39859
323.15 K, x1 = 0.4003	917.832	1.40177
323.15 K, x1 = 0.4999	941.902	1.40473
323.15 K, x1 = 0.6007	963.778	1.4074
323.15 K, x1 = 0.6996	983.155	1.40981
323.15 K, x1 = 0.7994	1001.06	1.41207
323.15 K, x1 = 0.8991	1017.44	1.41416
323.15 K, x1 = 1	1032.64	1.41614
